# Experiments:
# BxPC3M1 cells = assay: Colony formation assay; format: cell-based, human; conditions: vemurafenib 5 μM, glucose, and glycine depleted media, not with complete media
# Experimental: (§1) For colony formation assays, 400 cells per well were seeded into 24-well plates on day 0. Cells were treated with DMSO or gemcitabine at various doses on day 1 for 24 hours. Gemcitabine was washed out on day 2, vemurafenib, dabrafenib, and methotrexate was added. On day 4, drugs added on day 2 was washed out. Cells were allowed to grow for a subsequent 7 days before being fixed (10% methanol+10% acetic acid) and stained with crystal violet (0.4% in 20% ethanol) for quantitation as previously described.
# (§2) All proteomic trend plots were constructed using the Evol Science suite (ES). Volcano plotting serves to visually separate data points in two axes by both their expression ratio and their statistical significance. This enables a simple method of determining the most significant, differentially expressed proteins within a given comparison. For each protein, replicate values are gathered from each experiment to be compared to create two distributions of values. Student's T-Test of identical mean is used between the two independent samples of values to compare the distributions and generate a p-value of statistical significance. The −log 10 of the p-value is then taken to provide the Y coordinate, in graphical view. The X coordinate, Ratio, is given by the log 10 of the average of replicate ratio values for a given experiment. Combination Index calculations, Fa-CI plots, and isobolograms were constructed using the Compusyn software program using the Chou-Tulalay method. All plots representing colony formation assays were constructed using the Prism7 software (Graphpad.com). Two-way Anova tests were used to calculate p values.
# SK-MEL-28VR1 cells [1] = assay: Colony formation assay; format: cell-based, human; conditions: for cell death with serine depletion: glucose, and glycine depleted media, not with complete media
# Experimental: as §1, §2
# SK-MEL-28 cells [2] = assay: Colony formation assay; format: cell-based; conditions: Homo sapiens, parental cell line, FIG. 4B, read-out: IC50 of vemurafenib, colony formation
# Experimental: as §1
# as §2, with “Combination Index calculations, Fa-CI plots, and isobolograms were constructed using the Compusyn software program using the Chou-Tulalay method. All plots representing colony formation assays were constructed using the Prism7 software (Graphpad.com). Two-way Anova tests were used to calculate p values.” left out
# SK-MEL-28VR1 cells [3] = assay: Mass spectrometry, FAM129B protein abundance; format: cell-based, human; conditions: FIG. 5A, n=3
# Experimental: (§3) FIG. 5A and FIG. 5B illustrate a characterization of SK-MEL-28VR1 cells. FIG. 5A: Unbiased Mass spectrometry: FAM129B protein abundance following differential treatments of SK-MEL-28 and SK-MEL-28VR1 cells (n=3). FIG. 5B: illustrates a characterization of SK-MEL-28VR1 cells. Western blot of PHGDH protein expression in differentially treated SK-MEL-28 and SK-MEL-28VR1 cells. Alpha tubulin used as loading control. 50 μg of protein loaded in each lane.
# (§4) Samples were dried down and re-dissolved in 2.5% ACN/0.1% formic acid for liquid chromatography-tandem mass spectrometry (LC-MS/MS) analysis carried out on a Q-Exactive HF (Thermo Fisher Scientific) coupled with a U3000 RSLCnano HPLC device (Thermo Fisher Scientific). 5 μL of sample were loaded onto a C18 trap column (PepMap100; 300-μm i.d.×5 mm, 5-μm particle size, 100 Å; Thermo Fisher Scientific) at a flow rate of 10 μL min^−1. […] The runs were analyzed using Progenesis-QI for Proteomics (Nonlinear dynamics). […] The peptide and protein quantification used a synthetic control peptide for normalization across the samples. […]
# SK-MEL-28 cells [4] = assay: Mass spectrometry, FAM129B protein abundance; format: cell-based; conditions: parental SK-MEL-28 cells
# Experimental: as §3, §4
# [5] = system: BxPC3M1, BxPC3, Panc1, and MiaPaca2; assay: Cell proliferation assay; format: cell-based; conditions: vemurafenib 10 μM, all 4 cell lines (WT BRAF)
# Experimental: FIG. 9A, FIG. 9B, FIG. 9C, FIG. 9D, FIG. 9E, FIG. 9F, FIG. 9G and FIG. 9H illustrate vemurafenib induced cell proliferation and serine synthesis in pancreatic cancer cell lines. FIG. 9A: Cell proliferation assay of BxPC3 cells treated with vemurafenib (10 μM). 100000 cells plated on day 0. FIG. 9B: Cell proliferation assay of BxPC3M1 cells treated with vemurafenib (10 μM). 100000 cells plated on day 0. FIG. 9C: Cell proliferation assay of Panc1 cells treated with vemurafenib (10 μM). 100000 cells plated on day 0. FIG. 9D: Cell proliferation assay of MiaPaca2 cells treated with vemurafenib (10 μM). 100000 cells plated on day 0. FIG. 9E: Mass spectrometry: PHGDH protein expression in pancreatic cancer cells treated with DMSO or vemurafenib (10 μM) (n=3). FIG. 9F: Mass spectrometry: PSAT1 protein expression in pancreatic cancer cells treated with DMSO or vemurafenib (10 μM) (n=3). FIG. 9G: Mass spectrometry: PSPH protein expression in pancreatic cancer cells treated with DMSO or vemurafenib (10 μM) (n=3). FIG. 9H: Mass spectrometry: SARS protein expression in pancreatic cancer cells treated with DMSO or vemurafenib (10 μM) (n=3).
# Next, we tested the effect of vemurafenib treatment on pancreatic cancer cell proliferation. All 4 of the cell lines (BxPC3M1, BxPC3, Panc1, and MiaPaca2) tested express WT BRAF. […]
# [6] = system: pancreatic cancer cells (BxPC3M1, BxPC3, Panc1, MiaPaca2); format: cell-based; conditions: vemurafenib 10 μM versus DMSO, all 4 cell lines, n=3
# [7] = system: SK-MEL-28VR1 vs SK-MEL-28 cells; conditions: vemurafenib treatment, SK-MEL-28VR1 compared to parental SK-MEL-28
smiles,measurement,setting,value
"CCCS(=O)(=O)Nc1ccc(F)c(C(=O)c2c[nH]c3ncc(-c4ccc(Cl)cc4)cc23)c1F [vemurafenib, Vemurafenib]",cell death with serine depleted media,BxPC3M1 cells,> 50%
same,IC50,"SK-MEL-28VR1 cells [1]; Homo sapiens, data not shown, read-out: IC50 of vemurafenib, colony formation",~30 µM
same,cell death with serine depletion,SK-MEL-28VR1 cells [1]; vemurafenib 2.5 μM,> 50%
same,cell death with serine depletion,SK-MEL-28VR1 cells [1]; vemurafenib 5 μM,> 50%
same,IC50,SK-MEL-28 cells [2],~1 µM
same,"Cytoplasmic FAM129B abundance increase, vemurafenib compared to vehicle treatment",SK-MEL-28VR1 cells [3],~6 fold
same,FAM129B abundance in response to vemurafenib treatments,SK-MEL-28 cells [4],decreased
same,cell proliferation under vemurafenib treatment,[5],increased proliferation
same,"PHGDH, PSAT1, PSPH, and SARS protein abundance",[6],increased
same,"Fold differential, ASNS",[7]; protein ASNS,8 fold
same,"Fold differential, CYP51A1",[7]; protein CYP51A1,8 fold
same,"Fold differential, DUS2",[7]; protein DUS2,7 fold
same,"Fold differential, FAM129B",[7]; protein FAM129B,9 fold
same,"Fold differential, KRT19",[7]; protein KRT19,5 fold
same,"Fold differential, LARS2",[7]; protein LARS2,6 fold
same,"Fold differential, MPHOSPH6",[7]; protein MPHOSPH6,9 fold
same,"Fold differential, MRPL13",[7]; protein MRPL13,2 fold
same,"Fold differential, PDLIM7",[7]; protein PDLIM7,9 fold
same,"Fold differential, PHGDH",[7]; protein PHGDH,2 fold
same,"Fold differential, PPP1R7",[7]; protein PPP1R7,8 fold
same,"Fold differential, PSAT1",[7]; protein PSAT1,8 fold
same,"Fold differential, PSPH",[7]; protein PSPH,5 fold
same,"Fold differential, RUVBL1",[7]; protein RUVBL1,3 fold
same,"Fold differential, S100A11",[7]; protein S100A11,8 fold
same,"Fold differential, SARS2",[7]; protein SARS2,4 fold
same,"Fold differential, SARS",[7]; protein SARS,6 fold
same,"Fold differential, SBDS",[7]; protein SBDS,10 fold
same,"Fold differential, SPATA20",[7]; protein SPATA20,12 fold
same,"Fold differential, TXNDC17",[7]; protein TXNDC17,2 fold

# From patent US10869879B2, “Combinations to treat cancer” (EVOL SCIENCE LLC, priority 2017, dated 2020)
